According to US7282213B2, “Method for applying a drug coating to a medical device” (Medtronic, Inc., priority 2002, dated 2007):

Experiment: HPLC check for drug degradation after thermal processing of the electrode coating
Type: physicochemical
Details: coating heated to solid-state phase change (hot air tool), dissolved from electrode in solvent, compared to control solution
From the text: Prior attempts at heating a drug to form a more durable drug coating on an electrode surface have been less successful because the drug may degrade during the heating process due to overheating. One advantage of the present invention is that the controlled heating process, using a focused, direct heat source, achieves a change in solid state and micro-crack healing forming a conformable crystalline coating with a decrease in the defect density, without degrading the drug. […] Electrodes coated with beclomethasone dipropionate, according to the thermal processing methods described above and shown in FIG. 3, have been soaked in a solvent to dissolve the drug coating from the electrode surface. The resulting test solution was analyzed using HPLC and compared to HPLC results from a control sample of beclomethasone dipropionate in solution. Chromatograms of the test solution samples were identical to those of the control samples with regards to retention time of the major peak.

Compound: CCC(=O)OCC(=O)[C@@]1(OC(=O)CC)[C@@H](C)C[C@H]2[C@@H]3CCC4=CC(=O)C=C[C@]4(C)[C@@]3(Cl)[C@@H](O)C[C@@]21C [beclomethasone dipropionate anhydrous]
- degradation products by HPLC after thermal processing: no peaks associated with degradation products were observed
